From ChEMBL document CHEMBL5331133, “Discovery of AZD4747, a Potent and Selective Inhibitor of Mutant GTPase KRASG12C with Demonstrable CNS Penetration” (J Med Chem, 2023)

Tests used:
[1] = Lipophilicity, logD of compound at 7.4; conditions: octanol/water, pH 7.4, logD
[2] = […] stability in rat hepatocyte assessed as intrinsic clearance measured per million of cells; format: ADME, cell-based; conditions: hepatocytes
MDR1 and BCRP = assay: Efflux ratio of apparent permeability in dog MDCK cells transfected with MDR1 and BCRP at 0.1 uM; format: ADME, cell-based, Canis lupus familiaris
[3] = Unbound brain-to-plasma concentration ratio in Wistar Han rat at 2.3 microM/Kg, iv and measured after 4 hrs; format: ADME, organism-based; conditions: read-out: K(p,uu,brain)
[4] = Hepatic extraction ratio in CD-1 mouse at 2.3 microM/Kg, iv; format: ADME; conditions: at 2.3 µmol/kg, read-out: ERH
[5] = Volume of distribution at steady state in CD-1 mouse at 2.3 microM/Kg, iv; format: ADME; conditions: in vivo
[6] = Oral bioavailability in CD-1 mouse at 6.8 microM/Kg; format: ADME, organism-based; conditions: in vivo, at 6.8 µmol/kg
[7] = Observed clearance in Wistar Han rat at 1.1 to 2.3 microM/Kg, iv; format: ADME; conditions: in vivo, dose 1.1-2.3 µM/Kg
[8] = Hepatic extraction ratio in Wistar Han rat at 1.1 to 2.3 microM/Kg, iv; format: ADME; conditions: dose 1.1-2.3 µM/Kg, read-out: ERH
[9] = Volume of distribution at steady state in Wistar Han rat at 1.1 to 2.3 microM/Kg, iv; format: ADME; conditions: in vivo, dose 1.1-2.3 µM/Kg, read-out: Vdss
[10] = Half life in Wistar Han rat at 1.1 to 2.3 microM/Kg, iv; format: ADME; conditions: in vivo, dose 1.1-2.3 µM/Kg
[11] = Oral bioavailability in Wistar Han rat at 2.3 to 6.8 microM/Kg; format: ADME, organism-based; conditions: in vivo, dose 2.3-6.8 µM/Kg
[12] = Observed clearance in Beagle dog at 1.1 microM/Kg, iv; format: ADME, Canis lupus familiaris; conditions: in vivo
[13] = Hepatic extraction ratio in Beagle dog at 1.1 microM/Kg, iv; format: ADME, Canis lupus familiaris; conditions: at 1.1 µmol/kg, read-out: ERH
[14] = Volume of distribution at steady state in Beagle dog at 1.1 microM/Kg, iv; format: ADME, Canis lupus familiaris; conditions: in vivo, read-out: Vdss
[15] = Half life in Beagle dog at 1.1 microM/Kg, iv; format: ADME, Canis lupus familiaris; conditions: in vivo
[16] = Oral bioavailability in Beagle dog at 2.3 microM/Kg; format: ADME, organism-based, Canis lupus familiaris; conditions: in vivo, at 2.3 µmol/kg
[17] = Unbound brain-to-plasma concentration ratio in Wistar Han rat at 2.3 microM/Kg, iv and measured after 1 hrs in presence of pretreatment with elacridar for 0.5 hrs; format: ADME, organism-based; conditions: with elacridar (pretreatment for 0.5 hrs, dose not stated), read-out: K(p,uu,brain)
[18] = Unbound brain-to-plasma concentration ratio in Beagle dog at 170 to 680 microM/Kg, po QD for 15 days and measured 2 hrs last dose; format: ADME, organism-based, Canis lupus familiaris; conditions: dose 170-680 µM/Kg, time 15 day, read-out: K(p,uu,brain)
[19] = Unbound brain-to-plasma concentration ratio in iv dosed Cynomolgus monkey administered as […] compound by HPLC analysis; format: ADME, organism-based, Macaca fascicularis; conditions: read-out: K(p,uu,brain)
[20] = Hepatic blood flow in CD-1 mouse at 2.3 microM/Kg, iv; format: ADME
[21] = Hepatic blood flow in Wistar Han rat at 1.1 to 2.3 microM/Kg, iv; format: ADME; conditions: dose 1.1-2.3 µM/Kg
[22] = Hepatic blood flow in Beagle dog at 1.1 microM/Kg, iv; format: ADME, Canis lupus familiaris
[23] = Drug distribution in iv dosed Cynomolgus monkey brain administered as […] compound and assessed as radioactivity and measured 5 to 123 min post dose by PET imaging analysis; format: ADME, organism-based, Macaca fascicularis; conditions: in vivo, time 5-123 min
NCI-H358 [24] = assay: Antiproliferative activity against human NCI-H358 cells harboring KRAS G12C mutant cultured as 3D spheroids assessed as reduction in cell proliferation incubated for 3 days by CellTiter-Glo 3D reagent based assay; format: functional; conditions: NCI-H358, 72 h
NCI-H358 [25] = assay: Antiproliferative activity against human NCI-H358 cells harboring KRAS G12C mutant cultured as […] assessed as reduction in cell proliferation incubated for 3 days by CellTiter-Glo reagent based assay; format: functional; conditions: NCI-H358, 72 h
A549 = assay: Antiproliferative activity against human A549 cells harboring KRAS G12S mutant cultured as 3D spheroids assessed as reduction in cell proliferation incubated for 3 days by CellTiter-Glo 3D reagent based assay; format: functional; conditions: A549, 72 h
[26] = Inhibition of KRAS/MAPK pathway in human NCI-H358 cells harboring KRAS G12C mutant assessed as decrease in p90RSK phosphorylation incubated for 2 hrs by immunofluorescence assay; format: cell-based; conditions: NCI-H358, 2 h
[27] = Inhibition of KRAS/MAPK pathway in human PC-9 cells harboring wild-type KRAS assessed as decrease in p90RSK phosphorylation incubated for 2 hrs by immunofluorescence assay; format: cell-based; conditions: PC-9, 2 h
[28] = Inhibition of KRAS/MAPK pathway in human Calu-6 cells harboring KRAS Q61K mutant assessed as decrease in p90RSK phosphorylation incubated for 2 hrs by immunofluorescence assay; format: cell-based; conditions: Calu-6, 2 h
[29] = Toxicity in athymic nude mouse xenografted with human NCI-H358 cells harboring KRAS G12C mutant assessed as body weight change at 10 to 100 mg/kg, po for 21 days; format: organism-based; conditions: in vivo, 504 h, dose 10-100 mg/kg, time 21 day
[30] = Free drug concentration in athymic nude mouse plasma xenografted with human NCI-H358 cells harboring KRAS G12C mutant at 30 to 100 mg/kg, po and measured upto 24 hrs; format: ADME, organism-based; conditions: in vivo, dose 30-100 mg/kg
GTPase KRas = GTPase KRas (Homo sapiens, UniProt P01116, G12C)
Chain of GTPase KRas (P01116 whole entry G12C): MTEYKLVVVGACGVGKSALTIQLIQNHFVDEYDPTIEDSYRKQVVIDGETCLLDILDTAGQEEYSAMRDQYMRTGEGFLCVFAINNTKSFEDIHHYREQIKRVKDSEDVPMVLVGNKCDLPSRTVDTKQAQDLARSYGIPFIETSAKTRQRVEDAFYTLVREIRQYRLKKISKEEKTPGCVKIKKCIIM

Mus musculus [31] = species: Mus musculus; conditions: dose 10-30 mg/kg, route po, time 3.0 hrs
Mus musculus [32] = species: Mus musculus; conditions: dose 10-30 mg/kg, route po, time 6.0 hrs
in vitro = conditions: human, liver microsomes, CLH
Description: Microsomal stability in human liver microsomes assessed as intrinsic clearance

`C=CC(=O)N1CCN2Cc3cc(C#CC)c(-c4c(O)cccc4Cl)c(F)c3OC[C@H]2C1` gave a logD [1] of 2.9, a CLH [2] of 34 µL/min and an efflux ratio at 0.1 µM (MDR1 and BCRP) of 1.1. It also gave a Kp uu at 4 h [3] of 0.11, a hepatic extraction ratio [4] of 0.52 and a Vdss [5] of 2.9 L/kg. The bioavailability [6] was 58%, the clearance [7] was 54 mL/min/kg and the hepatic extraction ratio [8] was 0.75. It also gave a Vd [9] of 1.7 L/kg, a half-life [10] of 0.56 h and a bioavailability [11] of 18%. It also gave a clearance [12] of 10 mL/min/kg, a hepatic extraction ratio [13] of 0.19 and a Vd [14] of 1.2 L/kg. For the same compound, the half-life [15] was 1.7 h, the bioavailability [16] was 63% and the Kp uu at 1 h [17] was 1. It also gave a Kp uu at 360 h [18] of 0.7, a Kp uu [19] of 1.6 and a QH [20] of 152 mL/min/kg. The QH [21] was 72 mL/min/kg, the QH [22] was 55 mL/min/kg and the Drug uptake [23] was “Active”. It also gave an IC50 (NCI-H358 [24]) of 12 nM, an IC50 (NCI-H358 [25]) of 360 nM and an IC50 (A549) of 23300 nM. It also gave an IC50 [26] of 65 nM, an IC50 [27] greater than 30000 nM and an IC50 [28] greater than 30000 nM. The Activity [29] was “Non-Toxic”, the “Cp(f)” value [30] was 40 nM and the IC50 (GTPase KRas) was 15 nM. For the same compound, the inhibition (Mus musculus [31]) was “Dose-Dependent Effect”, the inhibition (Mus musculus [32]) was “Dose-Dependent Effect” and the microsomal CLint (in vitro) was 15 µL/min/mg.
